Laboratory results: the NIST ThermoML archive (doi:10.1021/je900672g)

Experiment: isobaric coefficient of expansion
Settings: Liquid, DSC

CCC#N [propanenitrile]
isobaric coefficient of expansion
Settings | 278.15 K | 288.15 K | 298.15 K | 308.15 K | 318.15 K | 328.15 K | 338.15 K | 348.15 K
5000 kPa | 0.00122 1/K | 0.00125 1/K | 0.00128 1/K | 0.0013 1/K | 0.00135 1/K | 0.00139 1/K | 0.00144 1/K | 0.0015 1/K
10000 kPa | 0.0012 1/K | 0.00121 1/K | 0.00123 1/K | 0.00126 1/K | 0.00129 1/K | 0.00133 1/K | 0.00136 1/K | 0.00141 1/K
15000 kPa | 0.00117 1/K | 0.00118 1/K | 0.0012 1/K | 0.00121 1/K | 0.00125 1/K | 0.00127 1/K | 0.0013 1/K | 0.00133 1/K
20000 kPa | 0.00114 1/K | 0.00115 1/K | 0.00117 1/K | 0.00118 1/K | 0.0012 1/K | 0.00122 1/K | 0.00125 1/K | 0.00127 1/K
25000 kPa | 0.00111 1/K | 0.00112 1/K | 0.00113 1/K | 0.00114 1/K | 0.00116 1/K | 0.00118 1/K | 0.0012 1/K | 0.00122 1/K
30000 kPa | 0.00109 1/K | 0.0011 1/K | 0.00111 1/K | 0.00111 1/K | 0.00113 1/K | 0.00114 1/K | 0.00115 1/K | 0.00117 1/K
35000 kPa | 0.00107 1/K | 0.00107 1/K | 0.00108 1/K | 0.00109 1/K | 0.0011 1/K | 0.00111 1/K | 0.00112 1/K | 0.00113 1/K
40000 kPa | 0.00104 1/K | 0.00105 1/K | 0.00105 1/K | 0.00106 1/K | 0.00106 1/K | 0.00107 1/K | 0.00107 1/K | 0.00108 1/K
45000 kPa | 0.00102 1/K | 0.00103 1/K | 0.00103 1/K | 0.00104 1/K | 0.00104 1/K | 0.00105 1/K | 0.00105 1/K | 0.00105 1/K
50000 kPa | 0.001 1/K | 0.00101 1/K | 0.00101 1/K | 0.00101 1/K | 0.00102 1/K | 0.00102 1/K | 0.00102 1/K | 0.00103 1/K
55000 kPa | 0.000991 1/K | 0.000992 1/K | 0.000993 1/K | 0.000994 1/K | 0.001 1/K | 0.001 1/K | 0.00101 1/K | 0.00101 1/K

CC[N+](=O)[O-] [nitroethane]
isobaric coefficient of expansion
Settings | 278.15 K | 288.15 K | 298.15 K | 308.15 K | 318.15 K | 328.15 K | 338.15 K | 348.15 K
5000 kPa | 0.00113 1/K | 0.00114 1/K | 0.00115 1/K | 0.00117 1/K | 0.00119 1/K | 0.0012 1/K | 0.00122 1/K | 0.00126 1/K
10000 kPa | 0.0011 1/K | 0.00111 1/K | 0.00112 1/K | 0.00114 1/K | 0.00116 1/K | 0.00116 1/K | 0.00119 1/K | 0.00121 1/K
15000 kPa | 0.00109 1/K | 0.00109 1/K | 0.0011 1/K | 0.00111 1/K | 0.00113 1/K | 0.00113 1/K | 0.00114 1/K | 0.00117 1/K
20000 kPa | 0.00106 1/K | 0.00107 1/K | 0.00107 1/K | 0.00109 1/K | 0.0011 1/K | 0.0011 1/K | 0.00111 1/K | 0.00112 1/K
25000 kPa | 0.00104 1/K | 0.00105 1/K | 0.00105 1/K | 0.00106 1/K | 0.00107 1/K | 0.00107 1/K | 0.00108 1/K | 0.0011 1/K
30000 kPa | 0.00102 1/K | 0.00103 1/K | 0.00103 1/K | 0.00104 1/K | 0.00105 1/K | 0.00104 1/K | 0.00106 1/K | 0.00107 1/K
35000 kPa | 0.00101 1/K | 0.00101 1/K | 0.00101 1/K | 0.00102 1/K | 0.00102 1/K | 0.00103 1/K | 0.00103 1/K | 0.00104 1/K
40000 kPa | 0.000984 1/K | 0.000987 1/K | 0.000993 1/K | 0.000994 1/K | 0.000999 1/K | 0.001 1/K | 0.00101 1/K | 0.00101 1/K
45000 kPa | 0.000973 1/K | 0.000972 1/K | 0.000973 1/K | 0.000977 1/K | 0.000981 1/K | 0.000984 1/K | 0.000982 1/K | 0.000989 1/K
50000 kPa | 0.000958 1/K | 0.00096 1/K | 0.00096 1/K | 0.000961 1/K | 0.000964 1/K | 0.000964 1/K | 0.000964 1/K | 0.000966 1/K
55000 kPa | 0.00094 1/K | 0.000944 1/K | 0.000941 1/K | 0.000942 1/K | 0.000945 1/K | 0.000944 1/K | 0.000945 1/K | 0.000947 1/K
